Measurements taken from patent US10835533B2, “1 -((3S,4R)-4-(3-fluorophenyl)-1-(2-methoxyethyl)pyrrolidin-3-yl)-3-(4-methyl-3-(2-methylpyrimidin-5-yl)-1-phenyl-1H-pyrazol-5-yl)urea as a TrkA kinase inhibitor” (Array BioPharma Inc., priority 2014, dated 2020).

Key:
[1] = molecular target: T1, cloned hERG potassium channels expressed in human embryonic kidney cells (HEK293) (Homo sapiens, UniProt Q12809); assay: FASTPatch hERG Assay (Example F); format: cell-based; conditions: HEK293, QPatch HT, room temperature
T1 construct: expressed in transfected cells; host or cells: HEK293
Description: This assay was used to measure the effects of Compound 1, Compound 2, and Compound 3 on cloned hERG potassium channels expressed in human embryonic kidney cells (HEK293). The in vitro effects of Compound 1, Compound 2, and Compound 3 on the hERG (human ether-a-go-go-related gene) potassium channel current (a surrogate for IKr, the rapidly activating, delayed rectifier cardiac potassium current) expressed in mammalian cells were evaluated at room temperature using the QPatch HT® (Sophion Bioscience A/S, Denmark), an automatic parallel patch clamp system. The test article was evaluated at 0.3, 1, 3, 10, 30 and 100 μM with each concentration tested in three or more cells (n≥3). The duration of exposure to each test article concentration was 3 minutes. A positive control confirmed the sensitivity of the test system to hERG inhibition.

[2] = molecular target: T2, GST-tagged recombinant human p38α (Homo sapiens, UniProt Q16539); assay: p38α LanthaScreen Eu Kinase Binding Assay (Example G); conditions: TrkA versus p38α binding
T2 construct: GST-tagged cytoplasmic domain from Invitrogen, Catalog No. PV3305; purchased Invitrogen PV3305
Description: The p38α binding activity of Compound 1 was determined in a p38α LanthaScreen™ Eu Kinase Binding Assay. […] Three fold serial dilutions of Compound 1 in DMSO were added to a final percentage of 2% DMSO. After 60-minute incubation at 22° C., the reaction was measured using the EnVision multimode plate reader (PerkinElmer) via TR-FRET dual wavelength detection at […]. The percent of control was calculated using a ratiometric emission factor. The IC50 value was determined by fitting a four parameter model to the percent of control data.

[3] = Liver microsomal clearance, mouse; format: in vitro ADME; conditions: pH 7.4; Mouse liver microsomes; 1 mg/mL; 20 minutes
Description: (§1) The predicted hepatic clearance (CLh) value was calculated by scaling the in vitro half-life (t1/2) for stability of the compound in liver microsomes (1 mg/mL; 20 minutes) using the physical and physiological scaling factors used to predict intrinsic clearance (CLint) and hepatic clearance (CLhep) listed in Table 2 and employed in the following equations: […]
(§2) where D is the amount of cytochrome P450-related protein per mass of liver, W is the average mass of liver present per weight of animal, C is the liver microsomal concentration, and Q is the species-dependent hepatic blood flow.
(§3) A 100 mM potassium phosphate assay buffer solution (KPB) was prepared as follows. Both KH2PO4 and K2HPO4 were dissolved separately in reagent grade water resulting in final concentrations 100 mM. A 75:25 mixture v/v of K2HPO4:KH2PO4 was prepared and the pH of the solution was adjusted to 7.4 using diluted HCl or diluted NaOH solutions. Stock solutions of Compound 1, Compound 2 and Compound 3 were prepared at 10 mM (active compound) in DMSO. The stock solution was diluted immediately before use to 2.5 μM using the KPB solution to create the working standard. All test compounds were completely soluble in DMSO by visual inspection at room temperature. The NADPH-regenerating solution (NRS) was prepared on the day of analysis by diluting one volume of 17 mg/mL NADP^+ with one volume of 78 mg/mL glucose-6-phosphate (both prepared in KPB, pH 7.4) and 7.9 volumes of 20 mM MgCl2. The final concentrations of NADP^+ and glucose-6-phosphate were 1.7 mg/mL and 7.8 mg/mL, respectively. […]
(§4) All calculations were performed using BioAssay Enterprise. The mean peak area ratios were calculated by averaging the peak area ratios (n=2) of Compound 1, Compound 2, Compound 3, and the internal standard for each sample. Percent remaining was calculated by determining the ratio of the peak area ratio at each time point to the peak area ratio of the time-zero samples. The rate of loss of test compound (km) was determined by linear regression of −ln(f(t)) versus time. […] The t1/2 was determined dividing ln(2) by km. […]

[4] = Liver microsomal clearance, dog; format: in vitro ADME; conditions: pH 7.4; Dog liver microsomes; 1 mg/mL; 20 minutes
Description: as §1, §2, §3, §4

[5] = IV clearance, 1 mg/kg IV, mouse; format: in vivo; conditions: for in vivo/in vitro correction factor: microsomal CLh divided by IV CL; for clearance: plasma, 1 mg/kg IV
Description: In Table 1, the predicted human IV clearance values were calculated from compound concentration-versus-time data in plasma collected from pre-clinical species (mouse, rat, dog and monkey) following 1 mg/kg intravenous (IV) doses. Concentrations of compound in plasma were measured by LC-MS (liquid chromatography-mass spectrometry). AUCinf values (Area under the plasma concentration-time curve for a dosing interval from time 0 extrapolated to infinity) for individual Cp/t curves (concentration of the drug in plasma at any time t) were determined using linear-trapezoidal integration and first order extrapolation from terminal points of the Cp/t curves, and clearance (CL) was calculated using Dose/AUCinf.

T1 sequence (Q12809 whole entry): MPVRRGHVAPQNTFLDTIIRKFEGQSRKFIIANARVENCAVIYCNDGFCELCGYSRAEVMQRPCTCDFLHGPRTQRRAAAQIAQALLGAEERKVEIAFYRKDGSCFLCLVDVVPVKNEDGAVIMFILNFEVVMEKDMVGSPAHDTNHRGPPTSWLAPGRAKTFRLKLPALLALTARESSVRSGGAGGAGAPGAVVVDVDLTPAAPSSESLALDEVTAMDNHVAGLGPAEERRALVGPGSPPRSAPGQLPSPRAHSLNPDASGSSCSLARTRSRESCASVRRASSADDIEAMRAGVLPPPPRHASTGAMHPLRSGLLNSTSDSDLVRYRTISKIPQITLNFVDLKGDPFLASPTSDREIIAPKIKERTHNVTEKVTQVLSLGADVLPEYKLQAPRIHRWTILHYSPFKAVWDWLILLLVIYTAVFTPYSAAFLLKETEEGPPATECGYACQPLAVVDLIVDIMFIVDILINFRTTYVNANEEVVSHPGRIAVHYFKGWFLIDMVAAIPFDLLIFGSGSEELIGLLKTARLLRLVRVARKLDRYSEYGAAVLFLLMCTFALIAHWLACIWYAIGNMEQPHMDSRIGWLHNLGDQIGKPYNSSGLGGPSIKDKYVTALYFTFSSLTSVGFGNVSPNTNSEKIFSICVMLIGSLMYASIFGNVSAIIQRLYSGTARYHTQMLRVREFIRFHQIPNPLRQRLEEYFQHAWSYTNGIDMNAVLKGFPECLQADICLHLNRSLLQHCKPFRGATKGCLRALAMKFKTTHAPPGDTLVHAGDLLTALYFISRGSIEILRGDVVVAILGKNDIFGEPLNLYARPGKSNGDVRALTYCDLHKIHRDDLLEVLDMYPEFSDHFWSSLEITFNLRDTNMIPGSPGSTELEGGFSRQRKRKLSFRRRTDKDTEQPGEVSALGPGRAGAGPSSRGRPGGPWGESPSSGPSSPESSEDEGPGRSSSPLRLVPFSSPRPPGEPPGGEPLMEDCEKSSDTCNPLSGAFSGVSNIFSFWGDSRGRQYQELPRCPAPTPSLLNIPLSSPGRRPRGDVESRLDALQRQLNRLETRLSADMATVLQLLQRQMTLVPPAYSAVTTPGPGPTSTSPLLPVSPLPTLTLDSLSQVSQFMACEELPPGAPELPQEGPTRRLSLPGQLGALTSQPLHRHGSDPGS
T2 sequence (Q16539 whole entry, the tested form may be a part): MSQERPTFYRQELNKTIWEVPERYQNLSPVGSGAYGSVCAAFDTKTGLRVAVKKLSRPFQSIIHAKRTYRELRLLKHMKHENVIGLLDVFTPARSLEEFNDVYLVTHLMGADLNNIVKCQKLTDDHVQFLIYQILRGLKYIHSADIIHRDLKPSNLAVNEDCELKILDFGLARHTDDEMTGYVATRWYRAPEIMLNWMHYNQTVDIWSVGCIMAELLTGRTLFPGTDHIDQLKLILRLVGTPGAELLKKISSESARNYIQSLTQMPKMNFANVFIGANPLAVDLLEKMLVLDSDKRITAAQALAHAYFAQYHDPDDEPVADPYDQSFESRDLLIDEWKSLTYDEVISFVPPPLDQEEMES

fold more potent against TrkA than p38α [2] | CLhep predicted at 1 μM [3] | CLhep predicted at 1 μM [4] | in vivo/in vitro correction factor [5] | clearance [5] | Structure (SMILES) | IC50 [1]
1000 fold | 50 mL/min/kg | 24 mL/min/kg | – | – | COCCN1C[C@@H](NC(=O)Nc2c(C)c(-c3cnc(C)nc3)nn2-c2ccccc2)[C@H](c2cccc(F)c2)C1 [Compound 1, 1-((3S,4R)-4-(3-fluorophenyl)-1-(2-methoxyethyl)pyrrolidin-3-yl)-3-(4-methyl-3-(2-methylpyrimidin-5-yl)-1-phenyl-1H-pyrazol-5-yl)urea] | 20 µM
– | 57 mL/min/kg | 26 mL/min/kg | 1.36 | 42 mL/min/kg | COCCN1C[C@@H](NC(=O)Nc2c(C)c(-c3cnc(C)nc3)nn2-c2ccccc2)[C@H](c2ccc(F)c(F)c2)C1 [Compound 2, 1-((3S,4R)-4-(3,4-difluorophenyl)-1-(2-methoxyethyl)pyrrolidin-3-yl)-3-(4-methyl-3-(2-methylpyrimidin-5-yl)-1-phenyl-1H-pyrazol-5-yl)urea] | 6.9 µM
– | 60 mL/min/kg | 23 mL/min/kg | 0.85 | 71 mL/min/kg | COCCN1C[C@@H](NC(=O)Nc2c(C)c(-c3cnn(C)c3)nn2-c2ccccc2)[C@H](c2ccc(F)cc2)C1 [Compound 3, 1-(1′,4-dimethyl-1-phenyl-1H,1′H-[3,4′-bipyrazol]-5-yl)-3-((3S,4R)-4-(4-fluorophenyl)-1-(2-methoxyethyl)pyrrolidin-3-yl)urea] | –
